Patent EP0185020B1, “NI[…] PREPARATION THEREOF AND UTILIZATION THEREOF IN ANTICANCEROUS CHEMIOTHERAPY” (CENTRE NATIONAL DE LA RECHERCHE SCIENTIFIQUE (CNRS), priority 1984, dated 1985)

Tests used:
[1] = test system: souche leucémique L1210; experiment: Antitumour activity on L1210 leukaemia inoculated i.p. in mice (ICIG, Example 11); assay type: in vivo, souris B6D2F1/OLA; conditions: for indices I: dose not given; for survie à 60 jours: à différentes doses
Excerpt: L'activité oncostatique de ces dérivés nitrosés a été déterminée à l'ICIG de Villejuif (Service du Pr. Mathe), en suivant un protocole expérimental décrit: M. Hayat et Coll., Cancer Chemother. Phar- macol., 1979, 3,217-221, R. Maral et Coll., Eur. J. Med. Chem., soumis pour publication.
(§1) Des souris B6D2F1/OLA, mâles, sont inoculées avec 10^5 cellules de la souche leucémique L1210 par voie intrapéritonéale au jour 0 et divisées en groupes. Le premier est le groupe témoin et les autres sont traités avec les drogues à différentes concentrations au jour 1,5 et 9. Les composés sont injectés en suspension dans l'huile d'olive. La mortalité des animaux est observée et l'autopsie indique si elle est due à la leucémie ou à l'action toxique des produits.
(§2) La dose létale 50% (DL50 aiguë) est déterminée en tenant compte de la mortalité survenue avant le huitième jour chez les animaux traités au jour J: 1. La médiane de survie des animaux traités (mT) et des animaux témoin (mC) a été établie et le test statistique non paramétrique de Wilcoxon a été utilisé. Les résultats sont considérés positifs si l'indice I (I = ^mT x 100) est supérieur à 125 et le test mC significatif à p ≼ 0,05. La valeur ∞ indique que 50% ou plus des animaux sont survivants au jour +60.
Plus l'intervalle des doses à efficacité maximale, ayant donc I = ∞, est important, plus le produit est doué d'une activité intéressante sur la leucémie L1210.

[2] = Acute lethal dose 50% (DL50 aiguë), i.p.; assay type: in vivo, souris B6D2F1/OLA; conditions: for DL 50: i.p., mortality before day 8 in animals treated on day 1, 11520 min
Excerpt: as §1, §2

With O=NN(CCCl)C(=O)NCCS [(1) ICIG 2016, N-[N-(chloro-2 éthyl) N-nitrosocarbamoyl] cystéamine] the “I = T/c × 100” value ([1]; 0,8 mg/kg i.p., jours 1,5,9) was 162, the “I = T/c × 100” value ([1]; 0,32 mg/kg i.p., jours 1,5,9) was 265 and the “I = T/c × 100” value ([1]; 2 mg/kg i.p., jours 1,5,9) was 188. The “% de survivants à 60 jours” value ([1]; 5 mg/kg i.p., jours 1,5,9) was 100%, the “I = T/c × 100” value ([1]; 5 mg/kg i.p., jours 1,5,9) was “∞ (La valeur ∞ indique que 50% ou plus des animaux sont survivants au jour +60)” and the “% de survivants à 60 jours” value ([1]; 10 mg/kg i.p., jours 1,5,9) was 100%. The “I = T/c × 100” value ([1]; 10 mg/kg i.p., jours 1,5,9) was “∞ (La valeur ∞ indique que 50% ou plus des animaux sont survivants au jour +60)”, the “% de survivants à 60 jours” value ([1]; 15 mg/kg i.p., jour + 1) was 100% and the “I = T/c × 100” value ([1]; 15 mg/kg i.p., jour + 1) was “∞ (La valeur ∞ indique que 50% ou plus des animaux sont survivants au jour +60)”. The “% de survivants à 60 jours” value ([1]; 12,5 mg/kg i.p., jours 1,5,9) was 100%, the “I = T/c × 100” value ([1]; 12,5 mg/kg i.p., jours 1,5,9) was “∞ (La valeur ∞ indique que 50% ou plus des animaux sont survivants au jour +60)” and the “indices I” value [1] was “infini”. For the same compound, the “survie à 60 jours” value [1] was 100% and the “DL 50” value [2] was 19 mg/kg.
In the case of CSCCNC(=O)N(CCCl)N=O [(3) ICIG 2017, S-méthyl N-[N-(chloro-2 éthyl)N-nitrosocarbamoyl] cystéamine], the “I = T/c × 100” value ([1]; 0,8 mg/kg i.p., jours 1,5,9) was 167, the “I = T/c × 100” value ([1]; 0,32 mg/kg i.p., jours 1,5,9) was 133 and the “I = T/c × 100” value ([1]; 2 mg/kg i.p., jours 1,5,9) was 158. For the same compound, the “% de survivants à 60 jours” value ([1]; 5 mg/kg i.p., jours 1,5,9) was 100%, the “I = T/c × 100” value ([1]; 5 mg/kg i.p., jours 1,5,9) was “∞ (La valeur ∞ indique que 50% ou plus des animaux sont survivants au jour +60)” and the “I = T/c × 100” value ([1]; 15 mg/kg i.p., jours 1,5,9) was 156. The “% de survivants à 60 jours” value ([1]; 12,5 mg/kg i.p., jours 1,5,9) was 87%, the “I = T/c × 100” value ([1]; 12,5 mg/kg i.p., jours 1,5,9) was “∞ (La valeur ∞ indique que 50% ou plus des animaux sont survivants au jour +60)” and the “indices I” value [1] was “infini”. For the same compound, the “survie à 60 jours” value [1] was 100% and the “DL 50” value [2] was 22 mg/kg.
For CC(=O)SCCNC(=O)N(CCCl)N=O [(5) ICIG 2018, S-acétyl N-[N-(chloro-2 éthyl) N-nitrosocarbamoyl] cystéamine], the “I = T/c × 100” value ([1]; 0,64 mg/kg i.p., jours 1,5,9) was 100, the “I = T/c × 100” value ([1]; 4 mg/kg i.p., jours 1,5,9) was 158 and the “% de survivants à 60 jours” value ([1]; 5 mg/kg i.p., jours 1,5,9) was 14%. For the same compound, the “I = T/c × 100” value ([1]; 5 mg/kg i.p., jours 1,5,9) was 217, the “% de survivants à 60 jours” value ([1]; 10 mg/kg i.p., jours 1,5,9) was 100% and the “I = T/c × 100” value ([1]; 10 mg/kg i.p., jours 1,5,9) was “∞ (La valeur ∞ indique que 50% ou plus des animaux sont survivants au jour +60)”. The “% de survivants à 60 jours” value ([1]; 15 mg/kg i.p., jours 1,5,9) was 25%, the “I = T/c × 100” value ([1]; 15 mg/kg i.p., jours 1,5,9) was 490 and the “I = T/c × 100” value ([1]; 20 mg/kg i.p., jours 1,5,9) was 211. For the same compound, the “I = T/c × 100” value ([1]; 1,6 mg/kg i.p., jours 1,5,9) was 117, the “% de survivants à 60 jours” value ([1]; 12,5 mg/kg i.p., jours 1,5,9) was 80% and the “I = T/c × 100” value ([1]; 12,5 mg/kg i.p., jours 1,5,9) was “∞ (La valeur ∞ indique que 50% ou plus des animaux sont survivants au jour +60)”. The “indices I” value [1] was “infini”, the “survie à 60 jours” value [1] was 100% and the “DL 50” value [2] was 25 mg/kg.
In the case of O=NN(CCCl)C(=O)NCCSC(c1ccccc1)(c1ccccc1)c1ccccc1 [(9) ICIG 2069, S-trityl N-[N-(chloro-2 éthyl) N-nitrosocarbamoyl] cystéamine], the “I = T/c × 100” value ([1]; 250 mg/kg i.p., jours 1,5,9, résultats partiels) was > 278, the “I = T/c × 100” value ([1]; 625 mg/kg i.p., jours 1,5,9, résultats partiels) was > 278 and the “toxicité, in words” value [2] was “n'est pas toxique”.
